Test: Mannitol in urine of kidney transplant patients the day after surgery (SERS / ESI-MS)
Assay type: in vivo
Excerpt: FIG. 2 is a graph 200 showing SERS spectra for patients who have received kidney transplants and are experiencing AR. The graph 200 plots Raman intensity, in arbitrary units (“a.u.”), along a vertical axis 210 against Raman shift, in cm^−1, along a horizontal axis 220. As a baseline, the chart 200 includes a background spectrum 230 that may be measured when a SERS sensor (e.g., the device 100 of FIG. 1) is immersed in water. The chart 200 also includes three SERS spectra 240, 250, 260 that may be measured when the same SERS sensor is immersed in urine samples of three AR patients. It may be observed that each of the three SERS spectra 240, 250, 260 includes a corresponding peak 242, 252, 262, at a value of about 1360 cm^−1 along the horizontal axis 220. FIG. 3 is a graph 300 showing SERS spectra for patients who have received kidney transplants and are not experiencing AR. The graph 300 plots Raman intensity, in arbitrary units (“a.u.”), along a vertical axis 310 against Raman shift, in cm^−1, along a horizontal axis 320. As a baseline, the chart 300 includes a background spectrum 330 that may be measured when a SERS sensor (e.g., the device 100 of FIG. 1) is immersed in water (e.g., the same background spectrum as is shown in FIG. 2). The chart 300 also includes three SERS spectra 340, 350, 360 that may be measured when the same SERS sensor is immersed in urine samples of three kidney transplant recipients who are not experiencing AR. It may be observed that the three SERS spectra 340, 350, 360 lack a peak at a value of 1360 cm^−1 along the horizontal axis 320. […] The chart 500 includes a SERS spectrum 530 measured when a SERS sensor (e.g., the device 100 of FIG. 1) is immersed in a urine sample of a kidney transplant recipient who is experiencing graft failure. […] The spectra 610, 620, 630 plot intensity, an expression of relative abundance expressed as a percentage, along a vertical axis 640 against mass-to-charge ratio m/z, an expression of the ratio of atomic mass to charge number, which is a dimensionless quantity, along a horizontal axis 650. […]

Compound: OC[C@@H](O)[C@@H](O)[C@H](O)[C@H](O)CO [mannitol]
- mannitol in the urine (patients experiencing acute rejection (AR), urine 24 hours after surgery, mannitol (e.g., 20 grams) given during kidney transplant surgery): high levels
- metabolism of mannitol (patients experiencing graft failure, SERS peak at 1360 cm^-1 in urine (FIG. 5)): do not metabolize mannitol well
- mannitol in patients' urine (transplant patients whose surgery is successful (no AR), urine 24 hours after surgery, mannitol (e.g., 20 grams) given during kidney transplant surgery): barely detectable

— US20150323520A1, “DIAGNOSIS OF KIDNEY TRANSPLANT ACUTE REJECTION” (The Trustees of the Stevens Institute of Technology, priority 2014, published 2015)
